How the values were obtained:
[1] = test system: loricrin gene; assay: Promoting expression of CE-forming-related factor: loricrin gene, quantitative real-time PCR; type: cell-based, human; details: SVHK cells, 1 μM, 48 hours; standardized to GAPDH; purified water control 1.00
Experimental: (§1) Loricrin, involucrin, and transglutaminase-1 are known as CE-forming-related factors. Here, effect of an inositol derivative on promoting expression of CE-forming-related factors was examined by using human epidermal cells. Human epidermal cells (SVHK cells) which were established from introduction of SV40 gene into human epidermal cells, were seeded on a plastic petri dish at a seeding density of 10,000 cells/cm^2 and cultured for 24 hours in Dulbecco's Modified Eagle's Medium (DMEM, manufactured by Sigma-Aldrich Co. LLC.) containing 10% fetal bovine serum. […] Next, quantitative real-time PCR was performed using this cDNA as a template, and the expression levels of loricrin gene, involucrin gene, and transglutaminase-1 (TG-1) gene in SVHK cells of each group were quantified, respectively. In addition, the expression level of glyceraldehyde-3-phosphate dehydrogenase (GAPDH) which is a housekeeping gene in which variation is not observed in the expression by adding a compound, as an internal standard gene, was quantified, and based on the expression levels of GAPDH gene in SVHK cells of each group, the expression levels of loricrin gene, involucrin gene, and TG-1 gene were standardized. […]

[2] = test system: transglutaminase-1 (TG-1) gene; assay: Promoting expression of CE-forming-related factor: transglutaminase-1 (TG-1) gene, quantitative real-time PCR; type: cell-based, human; details: SVHK cells, 1 μM, 48 hours; standardized to GAPDH; purified water control 1.00
Experimental: as §1

[3] = test system: SPT3 gene; assay: Promoting effect on serine palmitoyltransferase expression: SPT3 gene; type: cell-based, human; details: SVHK cells, 10 μM, 48 hours; standardized to GAPDH; purified water control 1.00
Experimental: (§2) Serine palmitoyltransferase (SPT) is known as a rate-limiting enzyme for ceramides synthesis. Here, effect of an inositol derivative on promoting SPT gene expression was examined by using human epidermal cells. Human epidermal cells (SVHK cells) which were established from introduction of SV40 gene into human epidermal cells, were seeded on a plastic petri dish at a seeding density of 10,000 cells/cm^2 and cultured for 24 hours in Dulbecco's Modified Eagle's Medium (DMEM, manufactured by Sigma-Aldrich Co. LLC.) containing 10% fetal bovine serum. […] Next, quantitative real-time PCR was performed using this cDNA as a template, and the expression levels of SPT gene in SVHK cells of each group were quantified. More specifically, the expression levels of SPT1, SPT2, and SPT3 genes which are subunits of SPT were quantified. In addition, the expression level of glyceraldehyde-3-phosphate dehydrogenase (GAPDH) which is a housekeeping gene in which variation is not observed in the expression by adding a compound, as an internal standard gene, was quantified, and based on the expression levels of GAPDH gene in SVHK cells of each group, the expression levels of SPT1, SPT2, and SPT3 genes were standardized. […]

[4] = test system: involucrin gene; assay: Promoting expression of CE-forming-related factor: involucrin gene, quantitative real-time PCR; type: cell-based, human; details: SVHK cells, 1 μM, 48 hours; standardized to GAPDH; purified water control 1.00
Experimental: as §1

[5] = test system: Normal human epidermal keratinocytes (NHEK cell); assay: Test for evaluating CE-forming ability; type: cell-based; details: NHEK cells, 1.8 mM Ca2+ medium, 1 μM, four days; purified water control 100
Experimental: Normal human epidermal keratinocytes (NHEK cell manufactured by KURABO INDUSTRIES LTD.) were seeded on a 24 well plate at 1×10^5 cells/cm^2 and cultured at 37° C. under 5% CO2 to reach confluence. As a medium of NHEK cells, HuMedia-KG2 (product name, manufactured by KURABO INDUSTRIES LTD.) was used. After that, the medium was replaced to HuMedia-KG2 medium containing 1.8 mM Ca2+, the inositol derivative dissolved in purified water of Example 2 was added to the final concentration of 1 μM, and culturing was further performed for four days. As for a control, in place of the inositol derivative, the same amount of purified water was added to NHEK cells, and the cells were cultured in the same manner as above. In addition, for comparison, myo-inositol dissolved in purified water was added to NHEK cells in place of the inositol derivative, and the cells were cultured in the same manner as above. After four days of culturing, cells of each group were collected, removed of the supernatant, added with 2% sodium dodecyl sulfate (SDS)-20 mM dithiothreitol (DTT), and heated at 100° C. for 15 minutes. Next, the cells were added with 1% acetic acid-50% ethanol, centrifuged (at 15,000 rpm for five minutes), and removed of the supernatant. Next, the cells were added with 10 mM Tris-HCl-1 mM EDTA and observed with a microscope, and an amount of CE formation was counted. […]

[6] = test system: SPT2 gene; assay: Promoting effect on serine palmitoyltransferase expression: SPT2 gene; type: cell-based, human; details: SVHK cells, 10 μM, 48 hours; standardized to GAPDH; purified water control 1.00
Experimental: as §2

[7] = test system: AQP3 gene; assay: Promoting effect on AQP3 expression, quantitative real-time PCR; type: cell-based, human; details: SVHK cells, 1 μM, 48 hours; standardized to GAPDH; purified water control 1.00
Experimental: (§3) Human epidermal cells (SVHK cells) which were established from introduction of SV40 gene into human epidermal cells, were seeded on a plastic petri dish at a seeding density of 10,000 cells/cm^2 and cultured for 24 hours in Dulbecco's Modified Eagle's Medium (DMEM, manufactured by Sigma-Aldrich Co. LLC.) containing 10% fetal bovine serum. Next, to the medium of SVHK cells, the inositol derivatives dissolved in purified water of Examples 1 to 6 and Comparative Example 1 were added to the final concentration of 1 μM, and culturing was further performed for 48 hours. As for a control, in place of the inositol derivative, the same amount of purified water was added to SVHK cells, and the cells were cultured in the same manner as above. […] Next, quantitative real-time PCR was performed using this cDNA as a template, and the expression levels of AQP3 gene in SVHK cells of each group were quantified. In addition, the expression level of glyceraldehyde-3-phosphate dehydrogenase (GAPDH) which is a housekeeping gene in which variation is not observed in the expression by adding a compound, as an internal standard gene, was quantified, and based on the expression levels of GAPDH gene in SVHK cells of each group, the expression levels of AQP3 gene were standardized. […]

[8] = test system: filaggrin gene; assay: Promoting effect on filaggrin gene expression, quantitative real-time PCR; type: cell-based, human; details: SVHK cells, 10 μM, 48 hours; standardized to GAPDH; purified water control 1.00
Experimental: as §3, with “Effect of an inositol derivative on promoting filaggrin gene expression was examined by using human epidermal cells. Human epidermal” for “Human epidermal”, “concentration of 10 μM, and” for “concentration of 1 μM, and”, “levels of filaggrin gene in” for “levels of AQP3 gene in”, “levels of filaggrin gene were” for “levels of AQP3 gene were”

[9] = test system: SPT1 gene; assay: Promoting effect on serine palmitoyltransferase expression: SPT1 gene; type: cell-based, human; details: SVHK cells, 10 μM, 48 hours; standardized to GAPDH; purified water control 1.00
Experimental: as §2

O[C@H]1[C@H](O)[C@@H](O)[C@H](O)[C@@H](O)[C@H]1O [Myo-inositol, myo-inositol]
Expression levels of gene (relative value) lorierin [1]: 0.39 | Expression levels of gene (relative value) TG-1 [2]: 1.96 | Expression levels of gene (relative value) SPT3 [3]: 1.64 | Expression levels of gene (relative value) involucrin [4]: 2.42 | Amount of CE formation (relative value) [5]: 123 | Expression levels of gene (relative value) SPT2 [6]: 2.49 | Expression levels of AQP3 gene (relative value) [7]: 0.83 | Expression levels of filaggrin gene (relative value) [8]: 5.94 | Expression levels of gene (relative value) SPT1 [9]: 2.01

— patent publication US20170312207A1, “MOISTURIZING AGENT” (SHOWA DENKO K.K., priority 2014, published 2017)
